Assay results as given in US20230381178A1, “METHODS FOR IMPROVING RENAL FUNCTION WITH A COMBINATION OF A BET BROMODOMAIN INHIBITOR AND A SODIUM DEPENDENT GLUCOSE TRANSPORT 2 INHIBITOR” (Resverlogix Corp., priority 2020, published 2023).

Legend:
[1] = BETonMACE, T2DM patients with a recent ACS (Ray et al. 2020); cited from earlier work
[2] = patients with established cardiovascular disease and eGFR<60 mL/min/1.73 m^2; monotherapy; p=0.04 vs. baseline (Kulikowski et al 2017); cited from earlier work
[3] = BETonMACE Phase 3 trial post-hoc analysis: eGFR (Cockcroft-Gault, serum creatinine) from baseline to last visit on treatment; type: in vivo, human
Procedure: Apabetalone (RVX-208) was evaluated in a recently completed clinical Phase 3 trial (BETonMACE; NCT02586155) for the effect on MACE in type 2 diabetes patients with low HDL cholesterol (below 40 mg/dL for males and below 45 mg/dL for females) and a recent acute coronary syndrome (ACS) (preceding 7-90 days). All patients received high intensity statin treatment or maximum tolerated statin treatment, which was 20-40 mg daily or a maximum daily dose of 40 mg for rosuvastatin or 40-80 mg daily or a maximum daily dose of 80 mg for atorvastatin.
Patients (n=2425) with ACS in the preceding 7 to 90 days, with type 2 diabetes and low HDL cholesterol (≤40 mg/dl for men, <45 mg/dl for women), receiving intensive or maximum-tolerated therapy with atorvastatin or rosuvastatin, were assigned in double-blind fashion to receive apabetalone 100 mg orally twice daily or matching placebo. Baseline characteristics include female sex (25%), myocardial infarction as index ACS event(74%), coronary revascularization for index ACS (76%), treatment with dual anti-platelet therapy (87%) and renin-angiotensin system inhibitors (91%), median LDL cholesterol 65 mg per deciliter, and median HbA1c 7.3%. The primary efficacy measure is time to first occurrence of cardiovascular death, non-fatal myocardial infarction, or stroke. The study enrolled 2425 patients and the MACE outcome population consisted of 2418 patients.
In the BETonMACE clinical study, a total of N=298 patients (N=150 in RVX-208 treatment group and N=148 in placebo treatment group) were administered an SGLT2 inhibitor (empagliflozin, dapagliflozin, or canagliflozin) in addition to RVX-208 with specified statin therapy (atorvastatin and rosuvastatin) and other guideline-defined treatments. Specifically, a total of 150 patients received both RVX-208 and an SGLT2 inhibitor; a total of 148 received an SGLT2 inhibitor, but no RVX-208; a total of 1062 received RVX-208, but no SGLT2 inhibitor; a total of 1058 received neither RVX-208 or an SGLT2 inhibitor.
Patients who were randomized and received at least one dose of SGLT2 treatment while actively receiving study drug (RVX-208 or placebo) were counted as those receiving a combination of SGLT2 treatment with either RVX-208 or placebo. Patients receiving more than one drug therapy within the SGLT2 inhibitor class were counted only once based upon whichever drug therapy patients continued taking at the end of treatment with study drug (RVX-208 or placebo). In cases where patients were receiving more than one drug therapy within the SGLT2 inhibitor class at the end of treatment with study drug, whichever SGLT2 inhibitor therapy was received for longer was counted.
Estimated glomerular filtration rate (eGFR) was calculated by the central lab using serum creatinine values and the Cockcroft-Gault formula. Serum creatinine was collected as part of the chemistry panel at the following time points: baseline, week 24, week 52, week 76, week 100, and last visit on treatment (LVT). The Cockcroft-Gault formula requires the input of an individual's age, sex, and weight. The last visit on treatment (LVT) timepoint represented the longest study exposure duration for patients receiving RVX-208 or placebo with and without SGLT2 inhibitors and is the focus of this analysis. The median time to LVT (and study drug exposure) for patients with a baseline and LVT measurements for eGFR administered an SGLT2 inhibitor (N=298) was 742 days (2.03 years). For the patients treated with a SGLT2 inhibitor and RVX-208 (N=150), the median time to LVT was 748 days (2.05 years) and for the patients treated with a SGLT2 inhibitor and received placebo (N=148), the median time to LVT was 734 days (2.01 years). No statistical difference was observed between the duration of study drug exposure, indicating a balance was observed between treatment groups. At the LVT timepoint, a total of N=121 patients in the apabetalone treatment group and N=122 patients in the placebo group had eGFR measurements. […]

## COc1cc(OC)c2c(=O)[nH]c(-c3cc(C)c(OCCO)c(C)c3)nc2c1 [RVX-208, 2-(4-(2-hydroxyethoxy)-3,5-dimethylphenyl)-5,7-dimethoxyquinazolin-4(3H)-one]
[1]
  effect on eGFR versus placebo: did not demonstrate the ability to statistically improve eGFR versus placebo
[2]
  increase in eGFR: 3.4%
[3]; BETonMACE post-hoc, T2DM patients with a recent ACS
  effect on eGFR / renal function: not able to increase median or mean eGFR levels
[3]; T2DM patients with recent ACS, on statin, RVX-208 100 mg orally twice daily where given, at LVT (median about 2 years)
  median eGFR at last visit on treatment (LVT): 96 mL/min
[3]; T2DM patients with recent ACS, on statin, at baseline
  median eGFR at baseline: 97 mL/min
[3]; T2DM patients with recent ACS, FIG. 3
  median change of eGFR from baseline to LVT: −3.2 mL/min/1.73 m^2
[3]; T2DM patients with recent ACS, FIG. 4
  mean change of eGFR from baseline to LVT: −3.3 mL/min/1.73 m^2
[3]; eGFR difference baseline to LVT divided by number of treatment days, monotherapy groups
  median eGFR slope from baseline to LVT: −0.004
